Source: US20150105252A1, “SUBSTITUTED PYRAZOLES AS HERBICIDES” (E I DU PONT DE NEMOURS AND COMPANY, priority 2013, published 2015)

Tests used:
[1] = test system: smartweed; assay: Test F postemergence; assay type: in vivo, Polygonum persicaria; details: 500 g ai/ha, scale 0 to 100
Source text: (§1) Seeds of plant species selected from corn (Zea mays), soybean (Glycine max), velvetleaf (Abutilon theophrasti), lambsquarters (Chenopodium album), wild poinsettia (Euphorbia heterophylla), pigweed, palmer (palmer pigweed, Amaranthus palmeri), common waterhemp (Amaranthus rudis), surinam grass (Brachiaria decumbens), large crabgrass (Digitaria sanguinalis), crabgrass, Brazil (Brazilian crabgrass, Digitaria horizontalis), fall panicum (Panicum dichotomiflorum), giant foxtail (Setaria faberii), green foxtail (Setaria viridis), goosegrass (Eleusine indica), johnsongrass (Sorghum halepense), common ragweed (Ambrosia elation), barnyardgrass (Echinochloa crus-galli), southern sandbur (Cenchrus echinatus), arrowleaf sida (Sida rhombifolia), Italian ryegrass (Lolium multiflorum), dayflower, VA (Virginia (VA) dayflower, Commelina virginica), field bindweed (Convolvulus arvensis), cocklebur (common cocklebur, Xanthium strumarium), morningglory (Ipomoea coccinea), nightshade (eastern black nightshade, Solanum ptycanthum), kochia (Kochia scoparia), yellow nutsedge (Cyperus esculentus), and hairy beggarticks (Bidens pilosa), were planted into a silt loam soil and treated preemergence with test chemicals formulated in a non-phytotoxic solvent mixture which included a surfactant.
(§2) At the same time, plants from these crop and weed species and also horseweed (Canada horseweed, Conyza canadensis), smartweed (ladysthumb smartweed, Polygonum persicaria), waterhemp_RES1, (ALS & Triazine resistant common waterhemp, Amaranthus rudis), and waterhemp_RES2, (ALS & HPPD resistant common waterhemp, Amaranthus rudis) were treated with postemergence applications of test chemicals formulated in the same manner. Plants ranged in height from 2 to 18 cm for postemergence treatments (1- to 4-leaf stage). Treated plants and controls were maintained in a greenhouse for 14 to 21 days, after which time all species were compared to controls and visually evaluated. Plant response ratings, summarized in Table F, are based on a scale of 0 to 100 where 0 is no effect and 100 is complete control. A dash (-) response means no test result.

[2] = test system: dayflower, VA; assay: Test F postemergence; assay type: in vivo, Commelina virginica; details: scale 0 to 100
Source text: as §1, §2

[3] = test system: foxtail, green; assay: Test E preemergence; assay type: in vivo, Setaria viridis; details: 21 days, scale 0 to 100
Source text: (§3) Seeds of plant species selected from bermudagrass (Cynodon dactylon), Surinam grass (Brachiaria decumbens), crabgrass, large (large crabgrass, Digitaria sanguinalis), crabgrass, naked (naked crabgrass, Digitaria nuda), foxtail, green (green foxtail, Setaria viridis), johnsongrass (Sorghum halepense), kochia (Kochia scoparia), morningglory (pitted morningglory, Ipomoea lacunosa), nutsedge, purple (purple nutsedge, Cyperus rotundus), ragweed (common ragweed, Ambrosia elation), mustard, black (black mustard, Brassica nigra), guineagrass (Panicum maximum), dallisgrass (Paspalum dilatatum), barnyardgrass (Echinochloa crus-galli), sandbur (southern sandbur, Cenchrus echinatus), sowthistle (common sowthistle, Sonchus oleraceous), ryegrass, Italian (Italian ryegrass, Lolium multiflorum), signalgrass (broadleaf signalgrass, Brachiaria platyphylla), dayflower, VA (Virginia (VA) dayflower, Commelina virginica), bluegrass (annual bluegrass, Poa annua), quackgrass (Elytrigia repens), mallow (common mallow, Malva sylvestris), buckwheat, wild (wild buckwheat, Polygonum convolvulus), leafy spurge (Euphorbia esula), common chickweed (Stellaria media), wild poinsettia (Euphorbia heterophylla), pigweed, palmer (palmer pigweed, Amaranthus palmeri), and pigweed (redroot pigweed, Amaranthus retroflexus) were planted into a blend of loam soil and sand and treated preemergence with test chemicals formulated in a non-phytotoxic solvent mixture which included a surfactant.
(§4) Treated plants and controls were maintained in a greenhouse for 21 days, after which time all species were compared to controls and visually evaluated. Plant response ratings, summarized in Table E, are based on a scale of 0 to 100 where 0 is no effect and 100 is complete control. A dash (-) response means no test result.

[4] = test system: mustard, black; assay: Test E preemergence; assay type: in vivo, Brassica nigra; details: 21 days, scale 0 to 100
Source text: as §3, §4

[5] = test system: pigweed; assay: Test E preemergence; assay type: in vivo, Amaranthus retroflexus; details: 21 days, scale 0 to 100
Source text: as §3, §4

[6] = test system: ryegrass, Italian; assay: Test E preemergence; assay type: in vivo, Lolium multiflorum; details: 21 days, scale 0 to 100
Source text: as §3, §4

[7] = test system: common waterhemp; assay: Test F postemergence; assay type: in vivo, Amaranthus rudis; details: scale 0 to 100
Source text: as §1, §2

[8] = test system: wild poinsettia; assay: Test E preemergence; assay type: in vivo, Euphorbia heterophylla; details: 21 days, scale 0 to 100
Source text: as §3, §4

[9] = test system: Italian ryegrass; assay: Test A preemergence; assay type: in vivo, Lolium multiflorum
In short: (§5)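 Visual injury rating, 0–100 (0 no effect, 100 complete control), vs untreated controls ~10 days after treatment in greenhouse. Pre: directed soil spray on seeded loam/sand. Post: 2–10 cm plants, 1–2 leaf stage. Formulation: non-phytotoxic solvent mix + surfactant.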

[10] = test system: kochia; assay: Test A preemergence; assay type: in vivo, Kochia scoparia
In short: as §5

[11] = 125 g ai/ha, visual injury, 0 to 100 scale, approx. 10 days
[12] = 500 g ai/ha, visual injury after approx. 10 days, 0 to 100 scale (0 no effect, 100 complete control)
[13] = 125 g ai/ha, visual injury approx. 10 days after treatment

SMILES | Plant response rating, Smartweed [1] | Plant response rating, Dayflower, VA ([2]; Postemergence, 31 g ai/ha) | Plant response rating, Dayflower, VA ([2]; Postemergence, 125 g ai/ha) | Plant response rating, Dayflower, VA ([2]; Postemergence, 250 g ai/ha) | Plant response rating, Dayflower, VA ([2]; postemergence, 62 g ai/ha) | Plant response rating, Dayflower, VA ([2]; postemergence, 500 g ai/ha) | Plant response rating, Foxtail, Green ([3]; 16 g ai/ha) | Plant response rating, Foxtail, Green ([3]; 31 g ai/ha) | Plant response rating, Foxtail, Green ([3]; 62 g ai/ha) | Plant response rating, Foxtail, Green ([3]; 125 g ai/ha) | Plant response rating, Foxtail, Green ([3]; 250 g ai/ha) | Plant response rating, Mustard, Black ([4]; 16 g ai/ha) | Plant response rating, Mustard, Black ([4]; 31 g ai/ha) | Plant response rating, Mustard, Black ([4]; 62 g ai/ha) | Plant response rating, Pigweed ([5]; 16 g ai/ha) | Plant response rating, Pigweed ([5]; 31 g ai/ha) | Plant response rating, Pigweed ([5]; 62 g ai/ha) | Plant response rating, Ryegrass, Italian ([6]; 16 g ai/ha) | Plant response rating, Ryegrass, Italian ([6]; 31 g ai/ha) | Plant response rating, Ryegrass, Italian ([6]; 62 g ai/ha) | other results
CCc1cc(C(=O)NCC(F)(F)F)nn1Cc1ccnc(C(F)(F)F)c1 [Compound 78, 5-ethyl-N-(2,2,2-trifluoroethyl)-1-[[(2-trifluoromethyl)-4-pyridinyl]methyl]-1H-pyrazole-3-carboxamide] | 100 | 20 | 60 | 90 | 50 | 98 | 50 | 100 | 100 | 100 | 100 | 70 | 100 | 100 | 100 | 100 | 100 | 10 | 50 | 90 | Plant response rating, Mustard, Black ([4]; 125 g ai/ha): 100; Plant response rating, Mustard, Black ([4]; 250 g ai/ha): 100; Plant response rating, Pigweed ([5]; 125 g ai/ha): 100; Plant response rating, Pigweed ([5]; 250 g ai/ha): 100; Plant response rating, Ryegrass, Italian ([6]; 125 g ai/ha): 100; Plant response rating, Ryegrass, Italian ([6]; 250 g ai/ha): 100; Plant response rating, Common Waterhemp ([7]; Postemergence, 31 g ai/ha): 70; Plant response rating, Common Waterhemp ([7]; Postemergence, 125 g ai/ha): 75; Plant response rating, Common Waterhemp ([7]; Postemergence, 250 g ai/ha): 70; Plant response rating, Common Waterhemp ([7]; postemergence, 62 g ai/ha): 60; Plant response rating, Common Waterhemp ([7]; postemergence, 500 g ai/ha): 98
CCc1cc(C(=O)NC(C)C)nn1Cc1ccnc(C(F)(F)F)c1 [Compound 103] |  |  |  |  |  |  | 100 | 100 | 100 | 100 | 100 | 100 | 100 | 100 | 100 | 100 | 100 | 50 | 98 | 100 | Plant response rating, Wild Poinsettia ([8]; 16 g ai/ha): 80; Plant response rating, Wild Poinsettia ([8]; 31 g ai/ha): 95; Plant response rating, Wild Poinsettia ([8]; 62 g ai/ha): 100; Plant response rating, Wild Poinsettia ([8]; 125 g ai/ha): 100; Plant response rating, Wild Poinsettia ([8]; 250 g ai/ha): 100; Plant response rating, Mustard, Black ([4]; 125 g ai/ha): 100; Plant response rating, Mustard, Black ([4]; 250 g ai/ha): 100; Plant response rating, Pigweed ([5]; 125 g ai/ha): 100; Plant response rating, Pigweed ([5]; 250 g ai/ha): 100; Plant response rating, Ryegrass, Italian ([6]; 125 g ai/ha): 100; Plant response rating, Ryegrass, Italian ([6]; 250 g ai/ha): 100
CCOc1cc(C(=O)NCC(F)(F)F)nn1Cc1ccnc(C(F)(F)F)c1 [Compound 104] | 98 | 35 | 70 | 90 | 55 | 95 | 100 | 100 | 100 | 100 | 100 | 100 | 100 | 100 | 100 | 100 | 100 | 75 | 98 | 100 | Plant response rating, Wild Poinsettia ([8]; 16 g ai/ha): 95; Plant response rating, Wild Poinsettia ([8]; 31 g ai/ha): 100; Plant response rating, Wild Poinsettia ([8]; 62 g ai/ha): 100; Plant response rating, Wild Poinsettia ([8]; 125 g ai/ha): 100; Plant response rating, Wild Poinsettia ([8]; 250 g ai/ha): 100; Plant response rating, Mustard, Black ([4]; 125 g ai/ha): 100; Plant response rating, Mustard, Black ([4]; 250 g ai/ha): 100; Plant response rating, Pigweed ([5]; 125 g ai/ha): 100; Plant response rating, Pigweed ([5]; 250 g ai/ha): 100; Plant response rating, Ryegrass, Italian ([6]; 125 g ai/ha): 100; Plant response rating, Ryegrass, Italian ([6]; 250 g ai/ha): 100; Plant response rating, Common Waterhemp ([7]; Postemergence, 31 g ai/ha): 75; Plant response rating, Common Waterhemp ([7]; Postemergence, 125 g ai/ha): 85; Plant response rating, Common Waterhemp ([7]; Postemergence, 250 g ai/ha): 85; Plant response rating, Common Waterhemp ([7]; postemergence, 62 g ai/ha): 80; Plant response rating, Common Waterhemp ([7]; postemergence, 500 g ai/ha): 90
CCONC(=O)c1cc(CC)n(Cc2cc(C(F)(F)F)no2)n1 [Compound 125] |  |  |  |  |  |  |  |  |  |  |  |  |  |  |  |  |  |  |  |  | Italian Ryegrass plant response rating [9, 11]: 20; Italian Ryegrass plant response rating [9, 12]: 100; Kochia plant response rating [10, 11]: 40; Kochia plant response rating [10, 12]: 100
CCOc1cc(C(=O)NC2CC2)nn1Cc1ccnc(OC(F)F)c1 [Compound 133] |  |  |  |  |  |  |  |  |  |  |  |  |  |  |  |  |  |  |  |  | Italian Ryegrass plant response rating [9, 11]: 40; Italian Ryegrass plant response rating [9, 12]: 90; Kochia plant response rating [10, 11]: 100; Kochia plant response rating [10, 12]: 100
CCOc1cc(C(=O)NC(C)C)nn1Cc1ccnc(C(F)(F)F)c1 [Compound 188] | 95 | 40 | 70 | 90 | 50 | 90 |  |  |  |  |  |  |  |  |  |  |  |  |  |  | Plant response rating, Common Waterhemp ([7]; Postemergence, 31 g ai/ha): 60; Plant response rating, Common Waterhemp ([7]; Postemergence, 125 g ai/ha): 80; Plant response rating, Common Waterhemp ([7]; Postemergence, 250 g ai/ha): 80; Plant response rating, Common Waterhemp ([7]; postemergence, 62 g ai/ha): 70; Plant response rating, Common Waterhemp ([7]; postemergence, 500 g ai/ha): 90
CCOc1cc(C(=O)NC2CC2)nn1Cc1ccnc(C(F)(F)F)c1 [Compound 189] |  |  |  |  |  |  | 100 | 100 | 100 |  |  | 100 | 100 | 100 | 100 | 100 | 100 | 20 | 50 | 100 | Plant response rating, Wild Poinsettia ([8]; 4 g ai/ha): 10; Plant response rating, Wild Poinsettia ([8]; 8 g ai/ha): 25; Plant response rating, Wild Poinsettia ([8]; 16 g ai/ha): 65; Plant response rating, Wild Poinsettia ([8]; 31 g ai/ha): 95; Plant response rating, Wild Poinsettia ([8]; 62 g ai/ha): 100; Plant response rating, Foxtail, Green ([3]; 4 g ai/ha): 0; Plant response rating, Foxtail, Green ([3]; 8 g ai/ha): 20; Plant response rating, Mustard, Black ([4]; 4 g ai/ha): 95; Plant response rating, Mustard, Black ([4]; 8 g ai/ha): 98; Plant response rating, Pigweed ([5]; 4 g ai/ha): 60; Plant response rating, Pigweed ([5]; 8 g ai/ha): 60; Plant response rating, Ryegrass, Italian ([6]; 4 g ai/ha): 0; Plant response rating, Ryegrass, Italian ([6]; 8 g ai/ha): 0
CCc1cc(C(=O)NCC(F)(F)F)nn1Cc1cc(OC(F)F)nn1C [Compound 206] |  |  |  |  |  |  |  |  |  |  |  |  |  |  |  |  |  |  |  |  | Italian Ryegrass plant response rating (0 to 100 scale) [9, 13]: 0; Italian Ryegrass plant response rating [9, 12]: 20; Kochia plant response rating (0 to 100 scale) [10, 13]: 50
